{"source": "paper PMC12671168", "about": "“The signal peptide of staphylococcal protein A alters the multimeric states of PepV” (Microbiology Spectrum, 2025)", "molecules": {"B1": {"name": "E. coli PepT (enzyme, Escherichia coli, UniProt P29745 1-408, looked up)", "chain": "MDKLLERFLNYVSLDTQSKAGVRQVPSTEGQWKLLHLLKEQLEEMGLINVTLSEKGTLMATLPANVPGDIPAIGFISHVDTSPDCSGKNVNPQIVENYRGGDIALGIGDEVLSPVMFPVLHQLLGQTLITTDGKTLLGADDKAGIAEIMTALAVLQQKKIPHGDIRVAFTPDEEVGKGAKHFDVDAFDARWAYTVDGGGVGELEFENFNAASVNIKIVGNNVHPGTAKGVMVNALSLAARIHAEVPADESPEMTEGYEGFYHLASMKGTVERADMHYIIRDFDRKQFEARKRKMMEIAKKVGKGLHPDCYIELVIEDSYYNMREKVVEHPHILDIAQQAMRDCDIEPELKPIRGGTDGAQLSFMGLPCPNLFTGGYNYHGKHEFVTLEGMEKAVQVIVRIAELTAQRK", "notes": "PepT of Escherichia coli, found with Foldseek as a protein structurally similar to PepV; The methods speak of recombinant His-tagged proteins from E. coli BL21(DE3); the construct of PepT is not described; also called Esherichia coli PepT; source: purified"}}, "key": {"PepVBsub": {"target": "T1, PepVBsub (Bacillus subtilis, UniProt O34944)", "T1 construct": "gene ytjP; purified ortholog, probably His-tagged from E. coli BL21(DE3); multimers beyond dimer", "T1 sequence (O34944 1-463)": "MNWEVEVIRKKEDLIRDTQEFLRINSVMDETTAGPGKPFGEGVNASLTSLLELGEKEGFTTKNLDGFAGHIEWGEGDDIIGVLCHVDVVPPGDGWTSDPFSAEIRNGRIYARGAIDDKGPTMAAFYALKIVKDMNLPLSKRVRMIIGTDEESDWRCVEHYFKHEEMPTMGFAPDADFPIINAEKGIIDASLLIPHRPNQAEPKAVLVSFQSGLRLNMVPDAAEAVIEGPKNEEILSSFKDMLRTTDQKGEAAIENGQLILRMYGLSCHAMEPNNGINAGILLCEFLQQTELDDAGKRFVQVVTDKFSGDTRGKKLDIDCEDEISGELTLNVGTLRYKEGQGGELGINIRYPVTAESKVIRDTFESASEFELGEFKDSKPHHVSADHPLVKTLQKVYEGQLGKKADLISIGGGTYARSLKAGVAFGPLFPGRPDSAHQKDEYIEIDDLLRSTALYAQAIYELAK", "test": "Cd-ninhydrin colorimetric dipeptidase assay, […] nm", "type": "biochemical", "conditions": "25 mM Tris pH 7.5, 2 mM MnCl2, 5 mM TCEP, 37 °C"}, "PepVEpi": {"target": "T2, PepVEpi (Staphylococcus epidermidis, UniProt Q5HNF9)", "T2 construct": "gene SERP1310; purified ortholog, probably His-tagged from E. coli BL21(DE3); multimers beyond dimer", "T2 sequence (Q5HNF9 1-469)": "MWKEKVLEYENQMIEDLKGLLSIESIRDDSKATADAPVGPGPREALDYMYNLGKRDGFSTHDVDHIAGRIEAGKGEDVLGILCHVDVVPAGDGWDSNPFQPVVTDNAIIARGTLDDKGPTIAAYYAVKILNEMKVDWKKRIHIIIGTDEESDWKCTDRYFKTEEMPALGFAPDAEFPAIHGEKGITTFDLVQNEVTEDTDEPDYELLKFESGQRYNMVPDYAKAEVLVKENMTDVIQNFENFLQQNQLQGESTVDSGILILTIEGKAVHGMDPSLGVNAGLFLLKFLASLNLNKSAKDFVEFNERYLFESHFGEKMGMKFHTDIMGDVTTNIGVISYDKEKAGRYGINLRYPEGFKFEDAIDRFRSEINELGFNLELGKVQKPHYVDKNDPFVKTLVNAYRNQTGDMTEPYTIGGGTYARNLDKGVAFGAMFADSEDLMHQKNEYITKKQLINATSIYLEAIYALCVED", "test": "Cd-ninhydrin colorimetric dipeptidase assay, […] nm", "type": "biochemical", "conditions": "25 mM Tris pH 7.5, 2 mM MnCl2, 5 mM TCEP, 37 °C"}, "PepVSpn": {"target": "T3, PepVSpn (Streptococcus pneumoniae, UniProt A0A0H2UP69)", "T3 construct": "gene pepV; purified ortholog, probably His-tagged from E. coli BL21(DE3); dimer only", "T3 sequence (A0A0H2UP69 1-466)": "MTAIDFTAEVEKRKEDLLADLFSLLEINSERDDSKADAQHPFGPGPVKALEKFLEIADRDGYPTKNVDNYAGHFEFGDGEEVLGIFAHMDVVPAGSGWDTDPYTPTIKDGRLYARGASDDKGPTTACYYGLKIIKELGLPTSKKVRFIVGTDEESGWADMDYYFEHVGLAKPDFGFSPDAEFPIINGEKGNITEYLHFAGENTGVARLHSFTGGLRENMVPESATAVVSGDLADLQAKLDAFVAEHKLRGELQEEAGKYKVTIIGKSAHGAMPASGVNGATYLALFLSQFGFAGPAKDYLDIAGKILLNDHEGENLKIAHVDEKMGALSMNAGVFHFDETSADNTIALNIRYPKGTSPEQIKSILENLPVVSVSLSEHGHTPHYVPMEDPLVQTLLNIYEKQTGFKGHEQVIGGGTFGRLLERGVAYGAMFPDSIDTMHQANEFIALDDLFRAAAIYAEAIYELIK", "test": "Cd-ninhydrin colorimetric dipeptidase assay, […] nm", "type": "biochemical", "conditions": "25 mM Tris pH 7.5, 2 mM MnCl2, 5 mM TCEP, 37 °C"}, "[1]": {"target": "T4, PepV (staphylococcal PepV) (Staphylococcus aureus, UniProt Q5HF23)", "T4 construct": "gene SACOL1801; His-tagged (pSY273, pET16b-H6-pepV), E. coli BL21(DE3), Ni-NTA; dimer, tetramer and higher oligomers", "T4 sequence (Q5HF23 1-469)": "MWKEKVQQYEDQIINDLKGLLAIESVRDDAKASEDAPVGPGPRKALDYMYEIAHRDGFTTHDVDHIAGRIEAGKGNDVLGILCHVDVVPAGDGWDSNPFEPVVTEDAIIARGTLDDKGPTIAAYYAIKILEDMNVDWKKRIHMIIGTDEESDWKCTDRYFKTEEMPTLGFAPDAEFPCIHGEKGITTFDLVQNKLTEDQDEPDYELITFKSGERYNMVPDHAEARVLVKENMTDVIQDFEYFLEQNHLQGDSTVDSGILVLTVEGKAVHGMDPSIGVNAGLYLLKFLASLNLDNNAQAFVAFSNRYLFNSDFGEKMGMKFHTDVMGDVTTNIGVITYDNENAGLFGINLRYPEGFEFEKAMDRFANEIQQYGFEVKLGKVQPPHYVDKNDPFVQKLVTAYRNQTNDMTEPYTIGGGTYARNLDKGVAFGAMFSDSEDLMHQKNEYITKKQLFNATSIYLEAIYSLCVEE", "test": "Cd-ninhydrin colorimetric dipeptidase assay, […] nm", "type": "biochemical", "conditions": "25 mM Tris pH 7.5, 2 mM MnCl2, 5 mM TCEP, 37 °C"}, "[2]": {"target": "PepV (Staphylococcus aureus), recombinant His-PepV (Staphylococcus aureus)", "test": "SEC; purified PepV alone or incubated with a 10-fold molar excess of peptide; Agilent SEC-3 or TSKgel Super2000 on HPLC; 0.5 M HEPES pH 7.6, 150 mM NaCl; 0.35 mL/min; absorbance at 280 nm"}, "[3]": {"target": "PepV (Staphylococcus aureus), recombinant His-PepV (Staphylococcus aureus)", "test": "native gel or EMSA; purified proteins, alone or mixed with peptide or precursor (0.5 µM PepV, 10-fold molar excess or rising concentrations of SpA SP); NativePAGE 4%-16% gel, 5 mA, 4°C, silver stain"}, "[4]": {"target": "the molecule itself", "test": "native gel or EMSA; purified proteins, alone or mixed with peptide or precursor (0.5 µM PepV, 10-fold molar excess or rising concentrations of SpA SP); NativePAGE 4%-16% gel, 5 mA, 4°C, silver stain"}}, "note": "Where “and” joins values, the source holds several entries; their conditions need not be identical. Equal values may be shown once. Peptide text beside a SMILES is read from it.", "data": [{"molecule": "C[C@H](N)C(=O)N[C@@H](C)C(=O)O", "note": "[Ala-Ala] (H-Ala-Ala-OH)", "values": [{"measurement": "Cd-ninhydrin colorimetric dipeptidase assay, 507 nm", "setting": "PepVBsub", "value": "performed a colorimetric ninhydrin dipeptidase assay using Ala-Ala as the substrate"}, {"measurement": "Cd-ninhydrin colorimetric dipeptidase assay, 507 nm", "setting": "PepVEpi", "value": "performed a colorimetric ninhydrin dipeptidase assay using Ala-Ala as the substrate"}, {"measurement": "Cd-ninhydrin colorimetric dipeptidase assay, 507 nm", "setting": "PepVSpn", "value": "performed a colorimetric ninhydrin dipeptidase assay using Ala-Ala as the substrate"}, {"measurement": "Cd-ninhydrin colorimetric dipeptidase assay, 507 nm", "setting": "[1]", "value": "we assessed the enzymatic activity of PepV in the presence of the SpA SP"}]}, {"molecule": "PepV (Staphylococcus aureus), recombinant His-PepV (enzyme)", "values": [{"measurement": "stoichiometry N", "setting": "[2]", "value": "2 and 4"}, {"measurement": "stoichiometry N", "setting": "[3]", "value": "2 and 4"}]}, {"molecule": "SpA SP (signal peptide of staphylococcal protein A)", "values": [{"measurement": "concentration of SpA SP at which the tetrameric and oligomeric PepV species diminish", "setting": "[3]", "value": 300, "unit": "nM"}]}, {"molecule": "B1", "values": [{"measurement": "stoichiometry N", "setting": "[4]", "value": 4}]}]}
